Molecular target: T1, CRF1 receptors (Homo sapiens, UniProt P34998)
T1 construct: endogenous in cells; host or cells: IMR-32 cells, transformed with 2.5 µM 5'-bromo-2'-deoxyuridine for 10 days; membrane preparation
T1 sequence (P34998 24-415): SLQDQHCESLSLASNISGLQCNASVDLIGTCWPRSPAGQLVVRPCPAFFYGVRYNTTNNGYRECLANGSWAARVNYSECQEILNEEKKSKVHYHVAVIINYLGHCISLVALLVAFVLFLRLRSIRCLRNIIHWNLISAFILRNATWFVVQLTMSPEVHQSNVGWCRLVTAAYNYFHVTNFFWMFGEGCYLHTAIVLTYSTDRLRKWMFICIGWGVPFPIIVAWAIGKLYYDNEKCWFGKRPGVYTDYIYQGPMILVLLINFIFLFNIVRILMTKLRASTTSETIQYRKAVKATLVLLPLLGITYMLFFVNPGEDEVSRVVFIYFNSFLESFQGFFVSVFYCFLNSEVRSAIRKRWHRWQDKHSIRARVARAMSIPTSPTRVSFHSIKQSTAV
Test: CRF1 receptor radioligand binding assay ([125I]-oCRF competition, IMR-32 cell membranes)
Conditions: IMR-32 cell membranes, [125I]-oCRF 100 pM; read-out: Ki (CRF-1R)
In short: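 Buffer: Tris pH 7.2 with MgCl2, BSA, Triton X-100, aprotinin, leupeptin; reaction stopped with ice-cold wash and filtered. Nonspecific binding set with 10 μM oCRF.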

| Molecule | Ki |
| --- | --- |
| CCCN(CCOC)Cc1c(C(F)(F)F)nc2n(-c3c(C)cc(C)cc3C)c(Cl)cn12 [Example 342, [6-Chloro-2-trifluoromethyl-7-(2,4,6-trimethyl-phenyl)-7H-imidazo[1,2-a]imidazol-3-ylmethyl]-(2-methoxy-ethyl)-propyl-amine] | < 100 nM |
| Cc1cc(C)c(-n2c(Cl)cn3c(CN(CCC(F)(F)F)Cc4cccc(F)c4)c(C(F)(F)F)nc23)c(C)c1 [Example 343, [6-Chloro-2-trifluoromethyl-7-(2,4,6-trimethyl-phenyl)-7H-imidazo[1,2-a]imidazol-3-ylmethyl]-(3-fluoro-benzyl)-(3,3,3-trifluoro-propyl)-amine] | < 100 nM |
| CCCCN(CC)Cc1c(C(F)(F)F)nc2n(-c3c(C)cc(C)cc3C)c(Cl)cn12 [Example 346, Butyl-[6-chloro-2-trifluoromethyl-7-(2,4,6-trimethyl-phenyl)-7H-imidazo[1,2-a]imidazol-3-ylmethyl]-ethyl-amine] | < 100 nM |
| (2,2,3,3,3-Pentafluoro-propyl)-(2,2,2-trifluoro-ethyl)-[2-trifluoromethyl-8-(2,4,6-trimethyl-phenyl)-8H-1,3a,8-triaza-cyclopenta[α]inden-3-ylmethyl]-amine [Example 162] | < 1000 nM |

Second part, the molecule after the results:

| Ki | Molecule |
| --- | --- |
| < 10 nM | CCN(Cc1c(C(F)(F)F)nc2n(-c3c(C)cc(C)cc3C)c(Cl)cn12)CC1CCC1 [Example 341, [6-Chloro-2-trifluoromethyl-7-(2,4,6-trimethyl-phenyl)-7H-imidazo[1,2-a]imidazol-3-ylmethyl]-cyclobutylmethyl-ethyl-amine] |
| < 100 nM | CCCN(CCC)Cc1c(C(F)(F)F)nc2n(-c3c(C)cc(C)cc3C)c(Cl)cn12 [Example 344, [6-Chloro-2-trifluoromethyl-7-(2,4,6-trimethyl-phenyl)-7H-imidazo[1,2-a]imidazol-3-ylmethyl]-dipropyl-amine] |
| < 10 nM | C=CCN(CC=C)Cc1c(C(F)(F)F)nc2n(-c3c(C)cc(C)cc3C)c(Cl)cn12 [Example 345, Diallyl-[6-chloro-2-trifluoromethyl-7-(2,4,6-trimethyl-phenyl)-7H-imidazo[1,2-a]imidazol-3-ylmethyl]-amine] |
| < 10 nM | Cc1cc(C)c(N2CCCn3c2nc(C(F)(F)F)c3CN2CCCC2Cc2ccccc2)c(C)c1 (stereo not drawn) [Example 347, 3-(2-Benzyl-pyrrolidin-1-ylmethyl)-2-trifluoromethyl-8-(2,4,6-trimethyl-phenyl)-5,6,7,8-tetrahydro-imidazo[1,2-a]pyrimidine] |
| < 1000 nM | Phenethyl-[2-trifluoromethyl-8-(2,4,6-trimethyl-phenyl)-8H-1,3a,8-triaza-cyclopenta[α]inden-3-ylmethyl]-(3,3,3-trifluoro-propyl)-amine [Example 168] |
